According to US20110318375A1, “Immunomodulatory Therapeutic Agents” (priority 2009, published 2011):

Key:
[1] = test system: Ponto Toro Virus; format: in vivo, mice; conditions: Ponto Toro infection, one dose; placebo group 25% survived
[2] = test system: Cytokine 12 Panel; assay: Cytokine 12 panels following oral administration of FPA (Table 6); format: in vivo, human; design: IL-12 / IL-10 / TNF-α / IL-2: unit not given here; conditions: for IFN-γ / IL-4 / IL-5 / IL-6 / IL-8 / IL-13: nl: 0-5; for IL-12: nl: 0-6; for IL-2: nl: 0-12; for IL-10: nl: 0-18; for TNF-α: nl: 0-22; for IL-1β: nl: 0-36; for IL-2R: nl: 0-1033
Excerpt: One of these patients was the same patient previously utilized, while the other was relatively neve to any previous Fibrinopeptide A treatment. The patient had taken two doses orally approximately seven weeks prior to this treatment, no lab work had been obtained with this prior dosing. […] This again elucidates the lack of effect of Fibrinopeptide A when given IV and the importance of utilizing a lymphatic route when treating with Fibrinopeptide A, and probably the others as well. [table] The data in table 6 further illustrates the up regulation of all aspects of the immune system in response to this persistent exposure to synthetic activated fibrinopeptide A through a lymphatic administration.

[3] = test system: Experimental Allergic Encephalomyelitis (EAE); assay: Acute Experimental Allergic Encephalomyelitis mouse model; format: in vivo, mice; conditions: daily, subcutaneous; recovery after day 22, worsened on days 27 and 28; p<0.1
Excerpt: The carboxy terminus of activated Fibrinopeptide A was considered to be the active portion of the peptide, the carboxy terminus was PEGylate (addition of Poly Ethylene Glycol). This molecule was used to perform an EAE study. This study was designed to mimic the study done by Ruhenstroth-Bauer in 1981 utilizing two of these peptides, and showing some albeit mild benefit. The synthetic PEGylated peptide was expected to perform considerably better than the non-PEGylated peptide. Synthetic non-PEGylated peptide A was used as a positive control to compare the PEGylated verses non-PEGylated peptides. The medications were administered subcutaneously, due to this route having some efficacy in the cytokine profiles.
Test article 2 (PEGylated peptide) dosed daily, every 3 days and weekly never even approached statistically significant benefit.
During the first 22 days of the study EAE development in mice treated with test article 1 (daily non-PEGylated peptide A) was very similar to the vehicle-treated mice. […] Disease worsened in test article 1-treated mice on days 27 and 28 and became very similar to disease severity to the mice in the vehicle-treated group.

[4] = 2 weeks back on FPA (different carrier)

With “ADSGEGDFLAEGGGV (listed as Homo sapiens) [Fibrinopeptide A]” the “mice that lived (overall survivability)” value [1] was 60%, the IFN-γ ([2]; 2 Weeks off FPA) was under 5 and the IL-4 ([2]; 2 Weeks off FPA) was under 5. The IL-5 ([2]; 2 Weeks off FPA) was 6, the IL-6 ([2]; 2 Weeks off FPA) was 66 and the IL-8 ([2]; 2 Weeks off FPA) was 8. For the same sequence, the IL-13 ([2]; 2 Weeks off FPA) was 8, the IL-12 ([2]; 2 Weeks off FPA) was 6 and the IL-2 ([2]; 2 Weeks off FPA) was 7. The IL-10 ([2]; 2 Weeks off FPA) was 230, the TNF-α ([2]; 2 Weeks off FPA) was under 5 and the IL-1β ([2]; 2 Weeks off FPA) was 37. For the same sequence, the IL-2R ([2]; 2 Weeks off FPA) was 255, the IFN-γ [2, 4] was 5 and the IL-4 [2, 4] was under 5. For the same sequence, the IL-5 [2, 4] was 6, the IL-6 [2, 4] was 63 and the IL-8 [2, 4] was 8. For the same sequence, the IL-13 [2, 4] was 9, the IL-12 [2, 4] was 6 and the IL-2 [2, 4] was 7. For the same sequence, the IL-10 [2, 4] was 204, the TNF-α [2, 4] was under 5 and the IL-1β [2, 4] was 48. For the same sequence, the IL-2R [2, 4] was 268, the IFN-γ ([2]; oral, 1 Week) was under 5 and the IL-4 ([2]; oral, 1 Week) was under 5. For the same sequence, the IL-5 ([2]; oral, 1 Week) was under 5, the IL-6 ([2]; oral, 1 Week) was under 5 and the IL-8 ([2]; oral, 1 Week) was under 5. It also gave an IL-13 ([2]; oral, 1 Week) of under 5, an IL-12 ([2]; oral, 1 Week) of under 5 and an IL-2 ([2]; oral, 1 Week) of under 5. It also gave an IL-10 ([2]; oral, 1 Week) of 141, a TNF-α ([2]; oral, 1 Week) of under 5 and an IL-1β ([2]; oral, 1 Week) of 30. The IL-2R ([2]; oral, 1 Week) was 504, the IFN-γ ([2]; oral, 2 weeks) was 5 and the IL-4 ([2]; oral, 2 weeks) was under 5. For the same sequence, the IL-5 ([2]; oral, 2 weeks) was 5, the IL-6 ([2]; oral, 2 weeks) was 77 and the IL-8 ([2]; oral, 2 weeks) was 8. It also gave an IL-13 ([2]; oral, 2 weeks) of 6, an IL-12 ([2]; oral, 2 weeks) of 6 and an IL-2 ([2]; oral, 2 weeks) of 7. It also gave an IL-10 ([2]; oral, 2 weeks) of 183, a TNF-α ([2]; oral, 2 weeks) of under 5 and an IL-1β ([2]; oral, 2 weeks) of 83. For the same sequence, the IL-2R ([2]; oral, 2 weeks) was 254 and the “difference in disease severity versus vehicle-treated mice” value [3] was “did not reach statistical significance”.
